We go through 13 compounds from patent publication US10035778B2, “Meta-azacyclic amino benzoic acid derivatives as pan integrin antagonists” (Saint Louis University, priority 2015, dated 2018).

Series [1] is described as follows: IV cassette pharmacokinetic study in male Sprague-Dawley rats (Saint Louis University). The format is in vivo. The settings on record: plasma; male Sprague-Dawley rat, 1 mg/kg IV cassette, sampling to 24 h; read-out: plasma t½ after 1 mg/kg IV bolus dose in rat (converted). The procedure:
(§1) A minimally sufficient volume of dimethylsulfoxide (DMSO) was added to each test compound to achieve solubilization. For intravenous (IV) delivery, compounds were then formulated as solutions in glycerol formal: saline (either 20:80 or 40:60 v/v) (Sigma Chemicals, St. Louis). For oral (PO) administration, compounds were formulated with 0.5% methylcellulose. Five to six compound solutions were combined into a singled mixed solution for IV and PO cassette administration with final DMSO concentrations <0.6% or <1.2%, for the IV and PO cassettes, respectively. Analytes were detected in test samples using an LC/MS/MS (liquid chromatography/mass spectrometry) system consisting of an LC-20AD pump (Shimadzu, Kyoto, Japan), an HTC PAL autosampler (Leap technologies, Carrboro, N.C.), and a Sciex API-4000 mass spectrometer in ESI mode (AB Sciex, Foster City, Calif.). An Amour C18 reverse phase column (Analytical Sales and Services, Pompton Plains, N.J.) was used for chromatographic separation.
(§2) Pharmacokinetic (PK) studies conducted at Saint Louis University used male Sprague-Dawley rats with an initial body weight of 200 to 220 g. IV PK studies were performed with the following compounds: Examples 1-3 and 5-17 and comparison compounds C12-C18, C29, and C30. Animals were allowed free access to food and water. Rats were individually housed and connected to jugular vein catheters. Each cassette formulation was administered intravenously to two rats (1 mL/kg body weight). Each cassette formulation contained 5-6 compounds at 1 mg/kg in either 20:80 or 40/60 glycerol formal/saline (v/v). Blood was collected manually via the catheter into lithium-heparin tubes at 0.017, 0.083, 0.5, 1, 2, 4, 6 and 24 hours post-dose. Animals were euthanized with CO2 at the end of the experiment.
(§3) Internal standard was added to all samples at 200 ng/mL (final), as well as 150 μL of acetonitrile. Plasma samples (50 μL total volume) were diluted with control nave rat plasma as appropriate to bring the sample measurement into the linear dynamic range of the standard curve. The samples were capped and mixed on a multi-plate vortexer for 5 minutes and centrifuged for 5 minutes at 3200 rmp. The supernant was transferred to 96-well sample plate and capped for LC/MS/MS analysis. Compounds were optimized and monitored for their respective MRM transitions. The mobile phases consisted of 0.1% formic acid (aqueous) and 100% acetonitrile (organic) with an Amour C18 reverse phase column (2.1×30 mm, 5 micron) at a flow rate of 0.35 mL/min. The starting phase was 10% acetonitrile for the 0.9 minutes then increased to 90% acetonitrile over 0.4 minutes, and was maintained for an additional 0.2 minutes before returning to 10% acetonitrile over 0.4 minutes. The 10% acetonitrile was held for an additional 1.6 minutes. Peak areas were integrated using Analyst 1.5.1 (AB Sciex, Foster City, Calif.).

Series [2] deals with Recombinant human integrin αvβ8 (Homo sapiens (Human), UniProt P06756+P26012). In words: Solid Phase Receptor Assay (SPRA) for αvβ8 function. Particulars: LAP-coated plate. Format: binding. On the procedure:
6. Solid Phase Receptor Assay (SPRA) for αvβ8 Function
Recombinant human LAP protein (R&D Systems, Inc, 246-LP) diluted to 0.5 μg/mL in TBS+ buffer (25 mM Tris pH 7.4, 137 mM NaCl, 2.7 mM KCl, 1 mM CaCl2, 1 mM MgCl2, 1 mM MnCl2) was added to wells (50 μl/well) of a 96-well half-well transparent microtiter plate (Greiner 675061), and incubated overnight at 4° C. Wells were washed 3 times with 150 μL TBS+ and 150 μL of blocking buffer (TBS+ with 1% bovine serum albumin, Sigma A7906) were added. The plate was incubated for 1 hr at 37° C. and then washed 3× with TBS+. Recombinant human integrin αvβ8 (R&D Systems, 4135-AV) was diluted to 0.1 μg/mL in TBS+/0.1% bovine serum albumin. Compounds were diluted 1:100 into the integrin solution and 50 μL added to empty wells of the washed LAP-coated plate according to a standard template with each sample repeated in triplicate. After incubation for two hours at room temperature, the plate was washed 3× with 150 μL of TBS+. To each well, 50 μL of biotinylated anti-αv antibody (R&D Systems, BAF1219) at 1 μg/mL in TBS+/0.1% BSA were added and the plate was covered and incubated for 1 hr at room temperature. After washing the plate 3× with 150 μL of TBS+ buffer, 50 μL of streptavidin-conjugated horseradish peroxidase (R&D Systems, DY998) diluted in TBS+ blocking buffer were added to the wells and the plate incubated for 20 min at room temperature. The plate was washed 3× with TBS+ followed by 50 μL of TMB substrate (Sigma T4444) added to each well and the plate incubated for 20 min at room temperature. Plates were read by colorimetric detection at 650 nm wavelength using a Tecan Safire II plate reader. Concentration-response curves were constructed by non-linear regression (best fit) analysis, and IC50 values were calculated for each compound.

Series [3] is described as follows: Oral (PO) cassette pharmacokinetic study in male Sprague-Dawley rats. The format is in vivo. Particulars: plasma; male Sprague-Dawley rat, 2 mg/kg oral gavage cassette in 0.5% methylcellulose; read-out: AUC (0-inf) after a 2 mg/kg PO dose in rat. The procedure: as §1, §2
Oral PK studies were conducted with the following compounds: Examples 1-3 and 5-17 and comparison compounds C12, C14-16 and C29-30. The PO cassette formulations were administered via oral gavage to two rats (10 mL/kg body weight) containing 5-6 compounds per cassette. The oral dose was administered at 2 mg/kg/compound in 0.5% methylcellulose. Blood collection time points were 0.25, 0.5, 1, 2, 4, 6 and 24 hours post-dose into lithium-heparin tubes. Animals were euthanized with CO2 at the end of the experiment.
as §3

Sequence of Recombinant human integrin αvβ8 (P06756 31-992): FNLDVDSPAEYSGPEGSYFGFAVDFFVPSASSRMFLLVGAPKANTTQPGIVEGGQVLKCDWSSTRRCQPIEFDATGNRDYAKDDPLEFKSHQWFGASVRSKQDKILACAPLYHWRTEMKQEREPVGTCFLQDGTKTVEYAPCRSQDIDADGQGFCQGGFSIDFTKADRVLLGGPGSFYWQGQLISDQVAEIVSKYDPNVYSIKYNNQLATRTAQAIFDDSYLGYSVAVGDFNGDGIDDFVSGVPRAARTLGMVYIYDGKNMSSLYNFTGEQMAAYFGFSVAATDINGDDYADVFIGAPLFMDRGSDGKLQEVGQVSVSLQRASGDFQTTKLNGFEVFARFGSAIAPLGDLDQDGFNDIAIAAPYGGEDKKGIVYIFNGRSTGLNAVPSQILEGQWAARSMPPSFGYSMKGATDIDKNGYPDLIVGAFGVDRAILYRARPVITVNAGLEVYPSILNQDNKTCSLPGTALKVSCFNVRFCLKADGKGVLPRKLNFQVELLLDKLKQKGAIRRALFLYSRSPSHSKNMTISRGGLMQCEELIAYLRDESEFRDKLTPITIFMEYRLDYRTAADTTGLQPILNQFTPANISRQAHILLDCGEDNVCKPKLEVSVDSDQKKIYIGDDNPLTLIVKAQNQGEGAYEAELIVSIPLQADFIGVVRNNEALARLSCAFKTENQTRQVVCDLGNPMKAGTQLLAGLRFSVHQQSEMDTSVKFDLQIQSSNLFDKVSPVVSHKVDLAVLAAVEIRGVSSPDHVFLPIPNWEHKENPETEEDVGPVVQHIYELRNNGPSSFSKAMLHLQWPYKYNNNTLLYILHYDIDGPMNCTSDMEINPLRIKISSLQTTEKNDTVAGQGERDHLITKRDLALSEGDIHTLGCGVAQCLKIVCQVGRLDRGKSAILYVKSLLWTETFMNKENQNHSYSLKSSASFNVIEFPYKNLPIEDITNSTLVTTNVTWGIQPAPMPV
Sequence of Recombinant human integrin αvβ8 (P26012 43-684): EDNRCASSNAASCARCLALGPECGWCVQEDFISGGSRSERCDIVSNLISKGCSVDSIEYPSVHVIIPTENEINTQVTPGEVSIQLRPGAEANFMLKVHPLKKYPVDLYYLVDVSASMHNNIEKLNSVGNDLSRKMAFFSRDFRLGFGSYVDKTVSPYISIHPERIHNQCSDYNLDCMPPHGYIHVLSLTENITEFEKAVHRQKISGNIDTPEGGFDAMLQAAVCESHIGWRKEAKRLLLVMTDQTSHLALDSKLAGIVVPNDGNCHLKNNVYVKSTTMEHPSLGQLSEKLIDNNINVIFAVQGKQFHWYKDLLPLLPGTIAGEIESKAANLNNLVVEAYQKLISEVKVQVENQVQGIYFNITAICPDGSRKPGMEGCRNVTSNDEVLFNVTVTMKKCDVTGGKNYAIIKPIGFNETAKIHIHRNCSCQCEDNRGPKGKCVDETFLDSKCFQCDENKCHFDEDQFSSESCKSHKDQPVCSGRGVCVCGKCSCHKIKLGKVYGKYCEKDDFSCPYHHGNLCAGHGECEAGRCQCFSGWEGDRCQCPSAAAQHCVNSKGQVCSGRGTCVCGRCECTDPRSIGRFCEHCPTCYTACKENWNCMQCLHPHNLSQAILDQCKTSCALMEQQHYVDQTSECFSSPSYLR

Take `O=C(O)C[C@H](NC(=O)CNC(=O)c1cc(O)cc(NC2=NCC(O)CN2)c1)c1cc(F)cc(Br)c1` (stereo partly drawn) [Example 13, (3S)-3-[3-bromo-5-fluoro-phenyl)-3-(2-(3-hydroxy-5-((5-hydroxy-1,4,5,6-tetrahydropyrimidin-2-yl)amino)benzamido)acetamido)propanoic acid]: the half-life in series [1] is 11 h. Besides, the IC50 in series [2] was determined as 1 ± 0.3 nM. For the same compound, in series [3], the AUC(0-inf) was found to be 13900 ng·h/mL.
The matching figures for `O=C(O)C[C@H](NC(=O)CNC(=O)c1cc(O)cc(NC2=NCC(O)CN2)c1)c1cc(Cl)cc(C(F)(F)F)c1` (stereo partly drawn) [Example 5, (3S)-3-[3-chloro-5-(trifluoromethyl)phenyl)-3-(2-(3-hydroxy-5-((5-hydroxy-1,4,5,6-tetrahydropyrimidin-2-yl)amino)benzamido)acetamido]propanoic acid]: 6.6 h, 0.6 nM and 11400 ng·h/mL.
As to `O=C(O)C[C@H](NC(=O)CNC(=O)c1cc(O)cc(NC2=NCC(O)CN2)c1)c1cc(Cl)cc(OC(F)(F)F)c1` (stereo partly drawn) [Example 16, (3S)-3-[3-chloro-5-(trifluoromethoxy)phenyl)-3-(2-(3-hydroxy-5-((5-hydroxy-1,4,5,6-tetrahydropyrimidin-2-yl)amino)benzamido)acetamido)propanoic acid], in series [1], the half-life is 3.2 h. The IC50 in series [2] amounted to 0.3 ± 0.1 nM. The AUC(0-inf) in series [3] was 6810 ng·h/mL.
As to `O=C(O)C[C@H](NC(=O)CNC(=O)c1cncc(NC2=NCC(O)CN2)c1)c1cc(Br)cc(C(F)(F)F)c1` (stereo partly drawn) [Example 9, (3S)-3-[3-bromo-5-(trifluoromethyl)phenyl]-3-[[2-[[5-[(5-hydroxy-1,4,5,6-tetrahydropyrimidin-2-yl)amino]pyridine-3-carbonyl]amino]acetyl]amino]propanoic acid], the half-life in series [1] was 5.6 h. For the same compound, the IC50 in series [2] was 0.3 nM. Further, the AUC(0-inf) in series [3] came out at 4120 ng·h/mL.
The matching figures for `O=C(O)C[C@H](NC(=O)CNC(=O)c1cc(O)cc(NC2=NCC(O)CN2)c1)c1cc(Br)cc(Br)c1` (stereo partly drawn) [Example 1, (3S)-3-(3,5-dibromophenyl)-3-(2-(3-hydroxy-5-((5-hydroxy-1,4,5,6-tetrahydropyrimidin-2-yl)amino)benzamido)acetamido)propanoic acid]: 20.2 h, 0.3 ± 0.1 nM and 25000 ng·h/mL.
`O=C(O)C[C@H](NC(=O)CNC(=O)c1cc(O)cc(NC2=NCC(O)CN2)c1)c1cc(Br)cc(C(F)(F)F)c1` (stereo partly drawn) [Example 2, (3S)-3-(3-bromo-5-(trifluoromethyl)phenyl)-3-(2-(3-hydroxy-5-((5-hydroxy-1,4,5,6-tetrahydropyrimidin-2-yl)amino)benzamido)acetamido)propanoic acid]: the half-life in series [1] is 9.1 h. In series [2], the IC50 worked out at 0.5 nM. The AUC(0-inf) in series [3] came out at 19300 ng·h/mL.
Consider `O=C(O)C[C@H](NC(=O)CNC(=O)c1cc(O)cc(NC2=NCC(O)CN2)c1)c1cc(Br)cc(OC(F)(F)F)c1` (stereo partly drawn) [Example 17, (3S)-3-(3-bromo-5-(trifluoromethoxy)phenyl)-3-(2-(3-hydroxy-5-((5-hydroxy-1,4,5,6-tetrahydropyrimidin-2-yl)amino)benzamido)acetamido)propanoic acid], for which the half-life in series [1] was 4.1 h. Also, in series [2], the IC50 was 0.3 ± 0.1 nM. In addition, the AUC(0-inf) in series [3] is 13100 ng·h/mL.
With `O=C(O)C[C@H](NC(=O)CNC(=O)c1cc(O)cc(NC2=NCC(O)CN2)c1)c1cc(Cl)cc(Cl)c1` (stereo partly drawn) [Example 15, (3S)-3-[3,5-dichloro-phenyl)-3-(2-(3-hydroxy-5-((5-hydroxy-1,4,5,6-tetrahydropyrimidin-2-yl)amino)benzamido)acetamido)propanoic acid], the half-life in series [1] was 23.8 h. For the same compound, the IC50 in series [2] is 1.1 ± 0.3 nM. Moreover, in series [3], the AUC(0-inf) came out at 15600 ng·h/mL.
For the compound `O=C(O)C[C@H](NC(=O)CNC(=O)c1cc(O)cc(NC2=NCC(O)CN2)c1)c1cc(Cl)cc(C(F)F)c1` (stereo partly drawn) [Example 3, (3S)-3-[3-chloro-5-(difluoromethyl)phenyl)-3-(2-(3-hydroxy-5-((5-hydroxy-1,4,5,6-tetrahydropyrimidin-2-yl)amino)benzamido)acetamido]propanoic acid], the half-life in series [1] was 6.1 h. In series [2], the IC50 turned out to be 0.3 nM. For the same compound, the AUC(0-inf) in series [3] came to 4870 ng·h/mL.
For the compound `O=C(O)C[C@H](NC(=O)CNC(=O)c1cncc(NC2=NCC(O)CN2)c1)c1cc(Br)cc(Br)c1` (stereo partly drawn) [Example 14, (3S)-3-(3,5-dibromophenyl)-3-[[2-[[5-[(5-hydroxy-1,4,5,6-tetrahydropyrimidin-2-yl)amino]pyridine-3-carbonyl]amino]acetyl]amino]propanoic acid], the half-life in series [1] is 34.2 h. The IC50 in series [2] was determined as 0.2 nM. Besides, the AUC(0-inf) in series [3] was determined as 6500 ng·h/mL.
In the same order, the values of `O=C(O)C[C@H](NC(=O)CNC(=O)c1cncc(NC2=NCC(O)CN2)c1)c1cc(Cl)cc(Br)c1` (stereo partly drawn) [Example 8, (3S)-3-(3-bromo-5-chloro-phenyl)-3-[[2-[[5-[(5-hydroxy-1,4,5,6-tetrahydropyrimidin-2-yl)amino]pyridine-3-carbonyl]amino]acetyl]amino]propanoic acid] are 23.9 h, 0.4 nM and 4470 ng·h/mL.
The matching figures for `O=C(O)C[C@H](NC(=O)CNC(=O)c1cc(O)cc(NC2=NCC(O)CN2)c1)c1cc(Cl)cc(Br)c1` (stereo partly drawn) [Example 6, (3S)-3-[3-bromo-5-chloro-phenyl)-3-(2-(3-hydroxy-5-((5-hydroxy-1,4,5,6-tetrahydropyrimidin-2-yl)amino)benzamido)acetamido]propanoic acid]: 16.7 h, 0.5 nM and 34400 ng·h/mL.
In the same order, the values of `Cc1cc(Br)cc([C@H](CC(=O)O)NC(=O)CNC(=O)c2cc(O)cc(NC3=NCC(O)CN3)c2)c1` (stereo partly drawn) [Example 11, (3S)-3-[3-bromo-5-methyl-phenyl)-3-(2-(3-hydroxy-5-((5-hydroxy-1,4,5,6-tetrahydropyrimidin-2-yl)amino)benzamido)acetamido)propanoic acid] are 24 h, 0.6 nM and 9140 ng·h/mL.

The IC50 is the concentration that inhibits the measured activity by half.
